The values that follow come from US20070298994A1, “Use of 3-Mercapto-3-Methyl-Hexan-1-Ol for Use as Malodour Standard” (SYMRISE GMBH & CO. KG, priority 2004, published 2007).

Molecules are shown by their SMILES.

One experiment in a line: Raw material test against sweat odour (masking of malodour standard, assessor panel).
Conditions: not given
For the compound `CCCCCCCC1CCC(=O)O1` (stereo not drawn) [5-HEPTYL-2-DIHYDROFURANONE], the “Increase In intensity” value is recorded as 1.1 and the Odour reduction value amounted to 3.8.

In the case of `C/C=C/C(=O)OC(C)C1CCCCC1` (stereo not drawn) [CROTONIC ACID-1-CYCLOHEXYL ETHYL ESTER], the “Increase In intensity” value is 0.8 and the Odour reduction value is 3.7.

Staying with this experiment, now noted: Table 1; 1 μl fragrance + 5 μl 3-mercapto-3-methyl-hexan-1-ol (0.1% in DPG) in 7 l air, 15 h at approx. 20° C.; scale 1 to 9, malodour standard mixture = 6; mean of at least 8 assessors.
As to `CCCCCCO` [1-HEXANOL], the “Increase In intensity” value is reported as 1.6 and the Odour reduction value came out at 3.6.

With `COC(=O)C1CC2(C)C=CC1(C(C)C)CC2` (stereo not drawn) [1-ISOPROPYL-4-METHYL-BICYCLO[2.2.2]OCT-5-ENE-2-CARBOXYLIC ACID METHYL ESTER], the “Increase In intensity” value is recorded as −0.8 and the Odour reduction value worked out at 4.2.

On to `O=C1CCCCCCCCCCCCCCO1` [1.15-PENTADECANOLIDE], for which the “Increase In intensity” value was 1.1 and the Odour reduction value was 3.6.

Turning to `COC(=O)c1ccc(O)c(C)c1O` [2,4-DIHYDROXY-3-METHYLBENZOIC ACID METHYL ESTER], the “Increase In intensity” value is on record as 0.0 and the Odour reduction value is recorded as 3.0.

Take `COC(=O)c1c(C)cc(O)c(C)c1O` [2,4-DIHYDROXY-3.6-DIMETHYLBENZOIC ACID METHYL ESTER]: the “Increase In intensity” value came out at 1.3 and the Odour reduction value is 3.8.

For the compound `CCOC(=O)C1=C(C)C=CCC1(C)C` [2,6,6-TRIMETHYL-1,3-CYCLOHEXADIENE CARBOXYLIC ACID ETHYL ESTER], the “Increase In intensity” value is recorded as −2.8 and the Odour reduction value came to 3.0.

For the compound `CC(=O)c1cc2ccccc2o1` [2-ACETYLBENZOFURAN], the “Increase In intensity” value was found to be 1.2 and the Odour reduction value came to 3.3.

On to `CCCCCCCC1CCCC1=O` (stereo not drawn) [2-HEPTYL-CYCLOPENTANONE], for which the “Increase In intensity” value worked out at 1.3 and the Odour reduction value is 4.5.

As to `COCc1ccc(O)c(OC)c1` [2-METHOXY-4-METHOXYMETHYL-PHENOL], the “Increase In intensity” value is −0.1 and the Odour reduction value was found to be 4.1.

Consider `COCc1ccccc1O` [2-METHOXYMETHYLPHENOL], for which the “Increase In intensity” value is −2.1 and the Odour reduction value worked out at 3.8.

Take `CC(CC#N)CCc1ccccc1` (stereo not drawn) [2-METHYL-4-PHENYL BUTYL CYANIDE]: the “Increase In intensity” value came out at 0.2 and the Odour reduction value is on record as 5.3.

Take `CC(CO)CCCc1ccccc1` (stereo not drawn) [2-METHYL-5-PHENYL PENTANOL]: the “Increase In intensity” value is reported as −0.5 and the Odour reduction value was determined as 5.1.

`CCCC(C)C(=O)OCC` (stereo not drawn) [2-METHYL-PENTANOIC ACID ETHYL ESTER]: the “Increase In intensity” value is 0.2 and the Odour reduction value worked out at 4.4.

Regarding `CCCCCCCCCC(C)C=O` (stereo not drawn) [2-METHYLUNDECANAL], the “Increase In intensity” value came to 0.7 and the Odour reduction value amounted to 3.2.

On to `COC(=O)c1ccccc1N=CC(C)Cc1ccc(C(C)(C)C)cc1` (stereo not drawn) [2-[[3-[4-1 1-DIMETHYLETHYL)PHENYL)-2-METHYLPROPLIDEN]AMINO]-BENZOIC ACID METHYL ESTER], for which the “Increase In intensity” value was −0.4 and the Odour reduction value was 3.3.

`O=Cc1ccc2c(c1)OCO2` [3,4-METHYLENDIOXYBENZALDEHYDE]: the “Increase In intensity” value is reported as −1.2 and the Odour reduction value is 3.7.

Regarding `CC(C)=CCCC(C)CC#N` (stereo not drawn) [3,7-DIMETHYL-6-OCTENE NITRILE], the “Increase In intensity” value is reported as 0.5 and the Odour reduction value is recorded as 4.5.

Turning to `CCCCC1COCC(C)C1OC(C)=O` (stereo not drawn) [3-BUTYL-TETRAHYDRO-5-METHYL-PYRAN-4-OL ACETATE], the “Increase In intensity” value is listed as 1.0 and the Odour reduction value is given as 3.0.

Consider `CC(C)c1ccc(CC=O)cc1` [4-(1-METHYLETHYL)-PHENYL ACETALDEHYDE], for which the “Increase In intensity” value is 1.7 and the Odour reduction value stood at 3.8.

Take `COc1ccc(C=O)cc1` [4-METHOXYBENZALDEHYDE]: the “Increase In intensity” value is recorded as 1.0 and the Odour reduction value was found to be 4.7.

With `CC(=O)CC(C)(C)c1ccccc1` [4-METHYL-4-PHENYL-2-PENTANONE], the “Increase In intensity” value is given as 1.4 and the Odour reduction value is recorded as 4.2.

For the compound `CCCCCCC1(C)CCC(=O)O1` (stereo not drawn) [4-METHYL-GAMMA-DECALACTONE], the “Increase In intensity” value amounted to 0.9 and the Odour reduction value is recorded as 5.6.

In the case of `CCCCCC1CCC(=O)O1` (stereo not drawn) [5-PENTYLDIHYDROFURAN-2-ONE], the “Increase In intensity” value is −0.8 and the Odour reduction value was 4.1.

Consider `CC(=O)c1cc2c(cc1C)C(C)(C)C(C)CC2(C)C` (stereo not drawn) [6-ACETYL-1,1,2,4,4,7-[…]], for which the “Increase In intensity” value is given as 0.0 and the Odour reduction value is listed as 3.1.

Regarding `C=CCCCCCCCCC=O` [10-UNDECENAL], the “Increase In intensity” value is given as 1.6 and the Odour reduction value was 3.3.

`C=CCOC(=O)COC1CCCCC1` [(CYCLOHEXYLOXY)-ACETIC ACID-2-PROPENYL ESTER]: the “Increase In intensity” value was −0.5 and the Odour reduction value worked out at 4.3.

On to `CCC/C=C/C=O` [(E)-2-HEXENAL], for which the “Increase In intensity” value is −0.2 and the Odour reduction value worked out at 3.1.

Turning to `C/C(=C\C#N)CCc1ccccc1` [(E)-3-METHYL-5-PHENYL-2-PENTENE NITRILE], the “Increase In intensity” value is given as 1.2 and the Odour reduction value came to 5.1.

On to `O=C1CCCCCC/C=C/CCCCCCC1` [(E)-8-CYCLOHEXADECEN-1-ONE], for which the “Increase In intensity” value is 0.2 and the Odour reduction value is given as 4.0.

As for `CCCC1CCOC(C)S1` (stereo not drawn) [(Z)-2-METHYL-4-PROPYL-1,3-OXATHIANE], the “Increase In intensity” value amounted to 0.0 and the Odour reduction value turned out to be 3.1.

As to `CCCCCCCCCC/C=C\C#N` [(Z)-2-TRIDECENE NITRILE], the “Increase In intensity” value turned out to be 1.6 and the Odour reduction value stood at 3.8.

On to `CC/C=C\CCOCCC#N` [(Z)-3-(3-HEXENYLOXY)-PROPANENITRILE], for which the “Increase In intensity” value was 1.5 and the Odour reduction value came to 5.0.

With `CC(=O)OC(C)c1ccccc1` (stereo not drawn) [ACETIC ACID-1-PHENYLETHYL ESTER], the “Increase In intensity” value was −0.4 and the Odour reduction value was 4.0.

With `CC(=O)OCC(C)CC(C)(C)c1ccccc1` (stereo not drawn) [ACETIC ACID-2,4-DIMETHYL-4-PHENYLPENTYL ESTER], the “Increase In intensity” value amounted to 1.6 and the Odour reduction value stood at 3.4.

`CC(=O)OCCc1ccccc1` [ACETIC ACID-2-PHENYLETHYL ESTER]: the “Increase In intensity” value amounted to 1.0 and the Odour reduction value is listed as 4.0.

Turning to `CC/C=C/CCOC(C)=O` [ACETIC ACID-3(E)-HEXENYL ESTER], the “Increase In intensity” value turned out to be 1.3 and the Odour reduction value came out at 3.1.

As for `CC(=O)OCCC(C)C` [ACETIC ACID-3-METHYLBUTYL ESTER], the “Increase In intensity” value was determined as 1.3 and the Odour reduction value amounted to 5.8.

`CC(=O)OC(C)(C)C1CC=C(C)CC1` (stereo not drawn) [ACETIC ACID-ALPHA-TERPINYL ESTER]: the “Increase In intensity” value is −0.3 and the Odour reduction value turned out to be 4.0.

Turning to `CC(=O)O[C@H]1CC[C@H](C(C)(C)C)CC1` [ACETIC-TRANS-4-TERT.-BUTYL CYCLOHEXYL ESTER], the “Increase In intensity” value was found to be 0.2 and the Odour reduction value came to 5.1.

`C=CCOC(=O)CCCCC` [ALLYL CAPRONATE]: the “Increase In intensity” value is recorded as 1.0 and the Odour reduction value is 3.0.

With `C=CCOC(=O)CCCCCC` [ALLYL HEPTYLATE], the “Increase In intensity” value is recorded as −0.5 and the Odour reduction value is given as 3.0.

Turning to `C=CC(C)(C#N)Cc1ccccc1` (stereo not drawn) [ALPHA-ETHENYL-ALPHA-METHYL-BENZENE PROPANE NITRILE], the “Increase In intensity” value was 1.0 and the Odour reduction value is reported as 4.2.

Take `Cc1cccc(CC(C)(C)C(C)O)c1` (stereo not drawn) [ALPHA.BETA.BETA.3-TETRAMETHYL-BENZENE PROPANOL]: the “Increase In intensity” value was determined as 0.2 and the Odour reduction value turned out to be 4.6.

For `CCOC(=O)OC1C(C)CCC(C)C1C` (stereo not drawn) [CARBONIC ACID-ETHYL-2.3.6-TRIMETHYL CYCLOHEXYL ESTER], the “Increase In intensity” value came to 1.0 and the Odour reduction value was 4.6.

The experiment is the same for the next values; noted with them: Table 2 (raw materials without adequate malodour-reducing action); 1 μl fragrance + 5 μl 3-mercapto-3-methyl-hexan-1-ol (0.1% in DPG) in 7 l air, 15 h; scale 1 to 9, standard = 6.
As to `CC=Cc1ccc(OC)cc1` [1-METHOXY-4-PROPENYL BENZENE, reference compound], the Increase in intensity came out at 2.0 and the Malodour reduction value is reported as 2.0.

Consider `CC(=O)OCc1ccccc1` [BENZYL ACETATE, reference compound], for which the Increase in intensity was determined as 0.4 and the Malodour reduction value is 2.5.

`OCc1ccccc1` [BENZYL ALCOHOL, reference compound]: the Increase in intensity came to 2.0 and the Malodour reduction value was −2.0.

`CC(C)=CCCC(C)CCO` (stereo not drawn) [CITRONELLOL, reference compound]: the Increase in intensity is listed as −0.2 and the Malodour reduction value worked out at 2.2.

Staying with this experiment, now noted: Table 3 (adequate malodour-reducing action but significant increase in intensity); 1 μl fragrance + 5 μl 3-mercapto-3-methyl-hexan-1-ol (0.1% in DPG) in 7 l air, 15 h; scale 1 to 9, standard = 6.
In the case of `CC12CCC(CC1)C(C)(C)O2` [1,8-CINEOL, reference compound], the Increase in intensity is reported as 2.4 and the Malodour-reduction value stood at 5.1.

As to `CC(C)CCCC(C)CCO` (stereo not drawn) [3,7-DIMETHYL OCTANOL, reference compound], the Increase in intensity was found to be 2.2 and the Malodour-reduction value is reported as 4.0.

On to `CCCCCOC(=O)c1ccccc1O` [AMYL SALICYLATE, reference compound], for which the Increase in intensity was 2.4 and the Malodour-reduction value is 3.6.

Staying with this experiment, now noted: prior-art fragrances examined by the applicant.
Turning to `CC(C)CCCC(C)CCO` (stereo not drawn) [3,7-DIMETHYL OCTANOL, reference compound], the “intrinsic odour / perfumistic impression (in words)” value is “strong perfumistic impression” and the “reduction in the bad odour based on 3-mercapto-3-methyl-hexan-1-ol (in words)” value is given as “leads to a malodour reduction”.
